Results from ChEMBL document CHEMBL3112574, “Substituted piperidines as HDM2 inhibitors” (Bioorg Med Chem Lett, 2014).

Test system: not listed separately
Assay: Tmax in mouse at 20 mg/kg, po
Assay type: ADME, organism-based
Parameters: dose 20 mg/kg, route oral
Conditions: in vivo

SMILES	Tmax [h]
COCCOc1ccccc1N1CCN(C(=O)C2(Oc3ccc(C(F)(F)F)cc3)CCCN(C(=O)c3cnccc3C(F)(F)F)C2)CC1.Cl (single isomer, unassigned)	1

Test system: not listed separately
Assay: AUC (0 to 24 hrs) in mouse at 20 mg/kg, iv
Assay type: ADME, organism-based
Parameters: time < 24 hr, dose 20 mg/kg, route intravenous
Conditions: plasma

SMILES	AUC(0-t) at 24 h [µM·h]
COCCOc1ccccc1N1CCN(C(=O)C2(Oc3ccc(C(F)(F)F)cc3)CCCN(C(=O)c3cnccc3C(F)(F)F)C2)CC1.Cl (single isomer, unassigned)	3.4

Test system: not listed separately
Assay: AUC (0 to 24 hrs) in mouse at 20 mg/kg, po
Assay type: ADME, organism-based
Parameters: time < 24 hr, dose 20 mg/kg, route oral
Conditions: plasma

SMILES	AUC(0-t) at 24 h [µM·h]
COCCOc1ccccc1N1CCN(C(=O)C2(Oc3ccc(C(F)(F)F)cc3)CCCN(C(=O)c3cnccc3C(F)(F)F)C2)CC1.Cl (single isomer, unassigned)	1.1

Target: T1, Cytochrome P450 2C9 (Homo sapiens, UniProt P11712)
Assay: Inhibition of CYP2C9 (unknown origin) compound co-incubated with substrate
Assay type: ADME
Conditions: not given

T1 sequence (P11712 whole entry): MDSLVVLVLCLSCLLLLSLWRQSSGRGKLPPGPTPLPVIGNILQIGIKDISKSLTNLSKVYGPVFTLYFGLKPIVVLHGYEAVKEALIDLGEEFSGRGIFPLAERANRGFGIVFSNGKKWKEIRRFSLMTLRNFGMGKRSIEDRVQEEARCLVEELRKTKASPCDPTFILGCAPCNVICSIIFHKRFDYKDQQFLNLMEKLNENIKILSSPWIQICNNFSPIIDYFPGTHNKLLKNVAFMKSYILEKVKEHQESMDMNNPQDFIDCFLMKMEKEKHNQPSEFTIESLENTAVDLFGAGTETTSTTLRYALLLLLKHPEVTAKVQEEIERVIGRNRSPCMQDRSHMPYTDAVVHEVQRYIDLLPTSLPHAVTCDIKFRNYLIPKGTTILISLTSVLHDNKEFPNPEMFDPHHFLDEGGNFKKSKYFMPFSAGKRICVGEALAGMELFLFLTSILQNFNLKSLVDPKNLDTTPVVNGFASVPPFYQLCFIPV

SMILES	IC50 [µM]
COCCOc1ccccc1N1CCN(C(=O)C2(Oc3ccc(C(F)(F)F)cc3)CCCN(C(=O)c3cnccc3C(F)(F)F)C2)CC1.Cl (single isomer, unassigned)	> 30

Target: Tumour suppressor p53/oncoprotein Mdm2 (Homo sapiens, UniProt Q00987)
Assay: Inhibition of human MDM2/p53 interaction by fluorescence polarization assay
Assay type: protein assay
Conditions: not given

Chain of Tumour suppressor p53/oncoprotein Mdm2 (P04637 whole entry): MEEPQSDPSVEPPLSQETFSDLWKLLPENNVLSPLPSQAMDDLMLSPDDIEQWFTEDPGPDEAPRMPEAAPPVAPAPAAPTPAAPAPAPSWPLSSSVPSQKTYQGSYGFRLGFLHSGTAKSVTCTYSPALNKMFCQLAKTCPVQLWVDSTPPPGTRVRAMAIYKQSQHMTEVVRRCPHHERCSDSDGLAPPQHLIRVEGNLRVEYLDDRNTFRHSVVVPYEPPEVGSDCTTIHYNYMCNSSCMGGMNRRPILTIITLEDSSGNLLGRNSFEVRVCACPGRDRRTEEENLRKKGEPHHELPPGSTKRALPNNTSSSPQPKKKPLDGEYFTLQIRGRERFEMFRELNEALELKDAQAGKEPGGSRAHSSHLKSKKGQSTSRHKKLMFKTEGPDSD
Chain of Tumour suppressor p53/oncoprotein Mdm2 (Q00987 whole entry): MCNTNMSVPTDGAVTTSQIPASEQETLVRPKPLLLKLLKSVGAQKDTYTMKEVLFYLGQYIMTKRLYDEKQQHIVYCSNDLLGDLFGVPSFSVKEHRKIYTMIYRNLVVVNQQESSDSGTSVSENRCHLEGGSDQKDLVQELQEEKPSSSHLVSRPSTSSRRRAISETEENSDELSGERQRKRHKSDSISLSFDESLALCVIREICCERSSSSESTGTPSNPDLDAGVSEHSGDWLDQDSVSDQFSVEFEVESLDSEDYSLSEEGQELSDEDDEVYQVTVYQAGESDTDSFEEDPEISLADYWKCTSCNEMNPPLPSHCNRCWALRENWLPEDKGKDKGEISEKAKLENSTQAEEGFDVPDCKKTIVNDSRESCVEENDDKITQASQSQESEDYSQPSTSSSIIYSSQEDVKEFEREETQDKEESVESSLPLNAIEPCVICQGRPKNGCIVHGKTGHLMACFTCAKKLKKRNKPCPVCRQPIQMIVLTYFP

SMILES	IC50 [µM]
O=C(NCCc1ccccc1)C1(Oc2ccc(C(F)(F)F)cc2)CCCN(C(=O)C2(c3ccc(Cl)cc3)CC2)C1 (centres undefined)	1.4
O=C(c1cnccc1C(F)(F)F)N1CCCC(Oc2cccc(Cl)c2)(C(=O)N2CCN(c3ccccn3)CC2)C1 (centres undefined)	5.2
O=C(c1cnccc1C(F)(F)F)N1CCCC(Oc2ccc(Cl)cc2)(C(=O)N2CCN(c3ccccn3)CC2)C1 (centres undefined)	6.7
O=C(c1cnccc1C(F)(F)F)N1CCCC(Oc2ccc(F)cc2)(C(=O)N2CCN(c3ccccn3)CC2)C1 (centres undefined)	6
O=C(c1cnccc1C(F)(F)F)N1CCCC(Oc2ccc(Br)cc2)(C(=O)N2CCN(c3ccccn3)CC2)C1 (centres undefined)	1.9
O=C(c1cnccc1C(F)(F)F)N1CCCC(Oc2ccc(Br)c(F)c2)(C(=O)N2CCN(c3ccccn3)CC2)C1 (centres undefined)	2.9
O=C(c1cnccc1C(F)(F)F)N1CCCC(Oc2ccc(Cl)c(F)c2)(C(=O)N2CCN(c3ccccn3)CC2)C1 (centres undefined)	1.4
Cc1nc2cc(OC3(C(=O)N4CCN(c5ccccn5)CC4)CCCN(C(=O)c4cnccc4C(F)(F)F)C3)ccc2s1 (centres undefined)	41
O=C(c1cnccc1C(F)(F)F)N1CCCC(Oc2ccc(-c3ccccc3)cc2)(C(=O)N2CCN(c3ccccn3)CC2)C1 (centres undefined)	48
COc1ccc(OC2(C(=O)N3CCN(c4ccccn4)CC3)CCCN(C(=O)c3cnccc3C(F)(F)F)C2)cc1 (centres undefined)	33
Cc1ccc(OC2(C(=O)N3CCN(c4ccccn4)CC3)CCCN(C(=O)c3cnccc3C(F)(F)F)C2)cc1 (centres undefined)	1.5
O=C(c1cnccc1C(F)(F)F)N1CCCC(Oc2ccc(C(F)(F)F)cc2)(C(=O)N2CCN(c3ccccn3)CC2)C1 (centres undefined)	2.3
O=C(c1cnccc1C(F)(F)F)N1CCCC(Oc2ccc(C(F)(F)F)cc2)(C(=O)N2CCN(c3ccccc3)CC2)C1 (centres undefined)	2.8
O=C(c1cnccc1C(F)(F)F)N1CCCC(Oc2ccc(C(F)(F)F)cc2)(C(=O)N2CCN(c3ccncn3)CC2)C1 (centres undefined)	18
O=C(c1cnccc1C(F)(F)F)N1CCCC(Oc2ccc(C(F)(F)F)cc2)(C(=O)N2CCN(c3ncccn3)CC2)C1 (centres undefined)	35
O=C(c1cnccc1C(F)(F)F)N1CCCC(Oc2ccc(C(F)(F)F)cc2)(C(=O)N2CCN(C3CCCCC3)CC2)C1 (centres undefined)	4.2
CC(=O)N1CCN(C(=O)C2(Oc3ccc(C(F)(F)F)cc3)CCCN(C(=O)c3cnccc3C(F)(F)F)C2)CC1 (centres undefined)	36
CN1CCN(C(=O)C2(Oc3ccc(C(F)(F)F)cc3)CCCN(C(=O)c3cnccc3C(F)(F)F)C2)CC1 (centres undefined)	12
O=C(c1cnccc1C(F)(F)F)N1CCCC(Oc2ccc(C(F)(F)F)cc2)(C(=O)N2CCN(Cc3ccccc3)CC2)C1 (centres undefined)	39
O=C(c1cnccc1C(F)(F)F)N1CCCC(Oc2ccc(C(F)(F)F)cc2)(C(=O)N2CC=C(c3ccccc3)CC2)C1 (centres undefined)	1.4
O=C(c1cnccc1C(F)(F)F)N1CCCC(Oc2ccc(C(F)(F)F)cc2)(C(=O)N2CCC(c3ccccn3)C2)C1 (centres undefined)	3.7
O=C(c1cnccc1C(F)(F)F)N1CCCC(Oc2ccc(C(F)(F)F)cc2)(C(=O)N2CCc3ccccc3C2)C1 (centres undefined)	1.4
O=C(c1cnccc1C(F)(F)F)N1CCCC(Oc2ccc(C(F)(F)F)cc2)(C(=O)NCc2ccc(Cl)cc2)C1 (centres undefined)	1.5
O=C(c1cnccc1C(F)(F)F)N1CCCC(Oc2ccc(C(F)(F)F)cc2)(C(=O)NCCc2ccccc2)C1 (centres undefined)	3.5
COc1cccc(N2CCN(C(=O)C3(Oc4ccc(C(F)(F)F)cc4)CCCN(C(=O)c4cnccc4C(F)(F)F)C3)CC2)c1 (centres undefined)	> 50

SMILES	IC50 [µM]
COc1ccc(N2CCN(C(=O)C3(Oc4ccc(C(F)(F)F)cc4)CCCN(C(=O)c4cnccc4C(F)(F)F)C3)CC2)cc1 (centres undefined)	23
O=C(c1cnccc1C(F)(F)F)N1CCCC(Oc2ccc(C(F)(F)F)cc2)(C(=O)N2CCN(c3ccccc3O)CC2)C1 (centres undefined)	0.97
CCOc1ccccc1N1CCN(C(=O)C2(Oc3ccc(C(F)(F)F)cc3)CCCN(C(=O)c3cnccc3C(F)(F)F)C2)CC1 (centres undefined)	0.59
CC(=O)Nc1ccccc1N1CCN(C(=O)C2(Oc3ccc(C(F)(F)F)cc3)CCCN(C(=O)c3cnccc3C(F)(F)F)C2)CC1 (centres undefined)	0.38
CCC(=O)Nc1ccccc1N1CCN(C(=O)C2(Oc3ccc(C(F)(F)F)cc3)CCCN(C(=O)c3cnccc3C(F)(F)F)C2)CC1 (centres undefined)	0.37
COCC(=O)Nc1ccccc1N1CCN(C(=O)C2(Oc3ccc(C(F)(F)F)cc3)CCCN(C(=O)c3cnccc3C(F)(F)F)C2)CC1 (centres undefined)	0.54
CN(C)CC(=O)Nc1ccccc1N1CCN(C(=O)C2(Oc3ccc(C(F)(F)F)cc3)CCCN(C(=O)c3cnccc3C(F)(F)F)C2)CC1 (centres undefined)	0.67
CN(C)CCC(=O)Nc1ccccc1N1CCN(C(=O)C2(Oc3ccc(C(F)(F)F)cc3)CCCN(C(=O)c3cnccc3C(F)(F)F)C2)CC1 (centres undefined)	0.59
CN(C)CCCC(=O)Nc1ccccc1N1CCN(C(=O)C2(Oc3ccc(C(F)(F)F)cc3)CCCN(C(=O)c3cnccc3C(F)(F)F)C2)CC1 (centres undefined)	1.08
Cc1cc(CC(=O)Nc2ccccc2N2CCN(C(=O)C3(Oc4ccc(C(F)(F)F)cc4)CCCN(C(=O)c4cnccc4C(F)(F)F)C3)CC2)on1 (centres undefined)	0.63
O=C(CC1NC(=O)NC1=O)Nc1ccccc1N1CCN(C(=O)C2(Oc3ccc(C(F)(F)F)cc3)CCCN(C(=O)c3cnccc3C(F)(F)F)C2)CC1 (centres undefined)	0.27
O=C(c1ccccc1C(F)(F)F)N1CCCC(Oc2ccc(C(F)(F)F)cc2)(C(=O)N2CCN(c3ccccn3)CC2)C1 (centres undefined)	6.5
O=C(N1CCN(c2ccccn2)CC1)C1(Oc2ccc(C(F)(F)F)cc2)CCCN(Cc2ccccc2C(F)(F)F)C1 (centres undefined)	14
CCCN1CCCC(Oc2ccc(C(F)(F)F)cc2)(C(=O)N2CCN(c3ccccn3)CC2)C1 (centres undefined)	6.5
CC(C)(C)CCN1CCCC(Oc2ccc(C(F)(F)F)cc2)(C(=O)N2CCN(c3ccccn3)CC2)C1 (centres undefined)	6.9
O=C(N1CCN(c2ccccn2)CC1)C1(Oc2ccc(C(F)(F)F)cc2)CCCN(CC2CCCCC2)C1 (centres undefined)	5.1
CC(C)(C)CC(=O)N1CCCC(Oc2ccc(C(F)(F)F)cc2)(C(=O)N2CCN(c3ccccn3)CC2)C1 (centres undefined)	3
CC(C)(C)C(=O)N1CCCC(Oc2ccc(C(F)(F)F)cc2)(C(=O)N2CCN(c3ccccn3)CC2)C1 (centres undefined)	22
O=C(N1CCN(c2ccccn2)CC1)C1(Oc2ccc(C(F)(F)F)cc2)CCCN(C(=O)C2(c3ccc(Cl)cc3)CC2)C1 (centres undefined)	1.9
O=C(N1CCN(c2ccccn2)CC1)C1(Oc2ccc(C(F)(F)F)cc2)CCCN(S(=O)(=O)c2ccccc2)C1 (centres undefined)	26
O=C(N1CCN(c2ccccn2)CC1)C1(Oc2ccc(C(F)(F)F)cc2)CCCN(S(=O)(=O)c2ccccc2C(F)(F)F)C1 (centres undefined)	41
O=C(N1CCN(c2ccccn2)CC1)C1(Oc2ccc(C(F)(F)F)cc2)CCCN(S(=O)(=O)c2ccccc2Cl)C1 (centres undefined)	31
O=C(N1CCN(c2ccccn2)CC1)C1(Oc2ccc(C(F)(F)F)cc2)CCCN(S(=O)(=O)c2ccc(Cl)cc2)C1 (centres undefined)	50
CC(C)S(=O)(=O)N1CCCC(Oc2ccc(C(F)(F)F)cc2)(C(=O)N2CCN(c3ccccn3)CC2)C1 (centres undefined)	6.9
O=C(c1cnccc1C(F)(F)F)N1CCCC(Oc2ccccc2Cl)(C(=O)N2CCN(c3ccccn3)CC2)C1 (centres undefined)	21

Target: T1, Cytochrome P450 2C9
Assay: Inhibition of CYP2C9 (unknown origin) compound preincubated with substrate
Assay type: ADME
Conditions: not given

SMILES	IC50 [µM]
COCCOc1ccccc1N1CCN(C(=O)C2(Oc3ccc(C(F)(F)F)cc3)CCCN(C(=O)c3cnccc3C(F)(F)F)C2)CC1.Cl (single isomer, unassigned)	> 30

Test system: not listed separately
Assay: Cmax in mouse at 20 mg/kg, po
Assay type: ADME, organism-based
Parameters: dose 20 mg/kg, route oral
Conditions: in vivo

SMILES	Cmax [nM]
COCCOc1ccccc1N1CCN(C(=O)C2(Oc3ccc(C(F)(F)F)cc3)CCCN(C(=O)c3cnccc3C(F)(F)F)C2)CC1.Cl (single isomer, unassigned)	700

Test system: not listed separately
Assay: Oral bioavailability in mouse at 20 mg/kg
Assay type: ADME, organism-based
Conditions: in vivo

SMILES	bioavailability [%]
COCCOc1ccccc1N1CCN(C(=O)C2(Oc3ccc(C(F)(F)F)cc3)CCCN(C(=O)c3cnccc3C(F)(F)F)C2)CC1.Cl (single isomer, unassigned)	32

Target: T2, Cytochrome P450 2D6 (Homo sapiens, UniProt P10635)
Assay: Inhibition of CYP2D6 (unknown origin) compound preincubated with substrate
Assay type: ADME
Conditions: not given

T2 sequence (P10635 whole entry): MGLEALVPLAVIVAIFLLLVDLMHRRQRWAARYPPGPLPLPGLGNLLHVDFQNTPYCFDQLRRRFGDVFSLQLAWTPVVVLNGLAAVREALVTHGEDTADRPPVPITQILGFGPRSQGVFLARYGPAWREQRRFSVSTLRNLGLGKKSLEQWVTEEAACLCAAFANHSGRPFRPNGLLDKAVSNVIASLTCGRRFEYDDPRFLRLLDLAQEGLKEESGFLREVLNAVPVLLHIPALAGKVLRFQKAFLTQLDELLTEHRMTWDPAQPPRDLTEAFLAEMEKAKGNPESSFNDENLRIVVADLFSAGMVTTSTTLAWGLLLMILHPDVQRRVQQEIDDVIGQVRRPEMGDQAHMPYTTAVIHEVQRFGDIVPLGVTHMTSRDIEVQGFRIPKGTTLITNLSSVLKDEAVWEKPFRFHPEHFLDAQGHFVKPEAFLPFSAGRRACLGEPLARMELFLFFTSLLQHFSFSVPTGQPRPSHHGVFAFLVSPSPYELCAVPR

SMILES	IC50 [µM]
COCCOc1ccccc1N1CCN(C(=O)C2(Oc3ccc(C(F)(F)F)cc3)CCCN(C(=O)c3cnccc3C(F)(F)F)C2)CC1.Cl (single isomer, unassigned)	> 30

Target: T2, Cytochrome P450 2D6
Assay: Inhibition of CYP2D6 (unknown origin) compound co-incubated with substrate
Assay type: ADME
Conditions: not given

SMILES	IC50 [µM]
COCCOc1ccccc1N1CCN(C(=O)C2(Oc3ccc(C(F)(F)F)cc3)CCCN(C(=O)c3cnccc3C(F)(F)F)C2)CC1.Cl (single isomer, unassigned)	> 30
